Laboratory results published in US20210186925A1, “Applications Of YD1701 In Preparation Of Drugs For Treating ALDH1A3 High-Expression Tumors” (First Affiliated Hospital Third Military Medical University …, priority 2017, published 2021).

System: orthotopic CRC transplanted tumors
Assay: orthotopic CRC transplanted tumors in mice
Format: in vivo
Details: YD1701 1 mg·kg^−1, 5-FU 10 mg·kg^−1, intraperitoneal, two weeks; three groups compared; FIG. 20
Procedure: To further assess the therapeutic potential of the YD1701, the inhibiting effects of the YD1701 and 5-FU(5-fluorouracil) on orthotopic CRC transplanted tumors in the mice are compared, and the experimental process is shown in FIG. 17. On the 20th day after the colons of mice of YD1701 are implanted with tumor micro-tissue blocks orthotopically, and the formation of the orthotopic transplanted tumors is determined by an in-vivo imaging system. […] Then, the determined mice with the orthotopic transplanted tumors are divided into three groups and subjected to intraperitoneal injection of YD1701 (1 mg·kg^−1), normal saline+DMSO and 5-FU (10 mg·kg^−1) for treatment for two weeks. The total survival time of the three groups of mice with the orthotopic transplanted tumors is compared.

`O=c1[nH]cc(F)c(=O)[nH]1` [5-FU, 5-fluorouracil] was tested, and the “volume sizes of the tumors in situ in the colons” value was “no obvious difference”.
